# Data from paper PMC12169104, “Towards the development of supramolecular self-associating amphiphiles as antibiofilm agents against Pseudomonas aeruginosa and Candida albicans biofilms” (Journal of Materials Chemistry. B, 2025).
# Where “and” joins values, the source holds several entries; their conditions need not be identical. Equal entries are not always repeated. Marks after values point to notes of the source that are not given here.
# Experiments:
# [1] = Dynamic light scattering (DLS) of SSA aggregates; assay type: physicochemical; details: for Peak 2 (nm) / Peak 3 (nm) / Peak 1 (nm): DLS average intensity particle size distribution; for Peak 2 (nm) / Peak 3 (nm) / PDI / Peak 1 (nm): EtOH:H2O 1:19; for dH (nm): DLS intensity distribution peak maxima, H2O:EtOH 19:1, 2.78 mM, 298 K, after annealing
# Excerpt: DLS studies: All vials used for preparing the samples were clean and dry. All solvents used were filtered to remove any particulates that may interfere with the results obtained. Samples of differing concentrations were obtained through serial dilution of a concentrated solution. All samples underwent an annealing process, in which they were heated to 313 K before being allowed to cool to 298 K to allow each sample to reach a thermodynamic minimum. […]
# [2] = Tensiometry: critical aggregation concentration and surface tension; assay type: physicochemical; details: H2O:EtOH 19:1, approx. 291 K; for CAC / CAC (mM): surface tension measurements, bounds represent the limit of solubility; for Surface tension at limit of solubility: footnote c, CAC not reached
# [3] = 1H NMR dilution study, dimerization constant (EK model, Bindfit v0.5); assay type: physicochemical; details: DMSO-d6/0.5% H2O, SSA anion dimerization
# Excerpt: (§1) The self-associative properties of SSAs 1–5, and co-formulations a–j, were studied using previously published methodologies, the results of which are summarised in Table 1.[44,45] Initially, we quantified the strength of homogeneous SSA anion self-association events, to confirm the effect of the squaramide – (thio)urea substitution. […] Complimentary ^1H NMR DOSY experiments conducted in DMSO-d6 0.5% H2O solutions at 298 K confirmed the SSA anion and cation components to diffuse at different rates, providing supporting evidence towards the lack of any strong ion pairing interactions between the SSA anionic and cationic components under these experimental conditions. […] The formation of SSA anionic dimers has also been shown in the solid state through single crystal X-ray diffraction experiments.[42,43,46] […] Here the SSA anion dimer is stabilised through the formation of four intermolecular squaramide-anion hydrogen bonds. Proton NMR spectroscopy dilution study data, obtained from a DMSO-d6 0.5% H2O solution, were then fitted to both the EK (the equal K single component linear self-associative or dimerization model) and CoEK (the cooperative equal K single component linear self-associative or dimerization model) self-association models using Bindfit v0.5.[47,48] […] The dimerization constants calculated confirm that substitution of the sulfonate ion (1 and 3) for the carboxylate ion (2) increase Kdim by approximately 50-fold. However, substituting the thiourea (2) for the squaramide (5) functionality increases the Kdim by a further 70-fold. Therefore, confirming our initial hypothesis, that incorporating the squaramide residue within the SSA anion structure would increase the strength of SSA anion self-association events.
# [4] = 1H NMR DOSY, hydrodynamic diameter of SSA anion; assay type: physicochemical; details: DMSO-d6/0.5 % H2O, 298 K
# Excerpt: as §1
# [5] = Membrane permeability and adhesion assay (1H CPMG NMR; PF and MAF); details: SSA anion(s), 200 μM, 298 K; for MAF (membrane adhesion factor): error ±0.05 unless stated, MAF < 1 suggests adhesion; for PF (membrane permeation factor): error ±0.1 unless stated, PF > 1 suggests permeable
# Excerpt: Finally, in line with our previous work, we moved to characterise the membrane adhesion and permeation events of 1–5 and co-formulations a–j with PE : PG 1 : 1 synthetic phospholipid vesicles.[53] This vesicle composition was prioritised for further analysis as this composition acts as a model for an AMR resistant strain of the ESKAPE pathogen P. aeruginosa,[54,55] categorised as high priority by the WHO.[33] As summarised in Table 4, membrane permeation (PF) and membrane adhesion factors (MAF) for the SSA anionic components were calculated through the use of ^1H CPMG NMR spectroscopy experiments, using vesicles produced by extrusion through a 1000 nm polycarbonate membrane.
# Here the lower the MAF, the stronger the adhesion of the molecule to the surface of the phospholipid membrane. […] A PF value of 1 or above provides evidence of SSA permeation. The greater this value above 1, the greater the membrane permeation potential of a compound. […]
# Membrane permeability and adhesion assay, determining membrane adhesion factors (MAF) and permeation factors (PF): Lipid vesicles of DOPE and PG, in a 1:1 ratio by weight were prepared as described in ‘preparation of vesicles’ with one alteration. Here vesicles were extruded 21 times through a 1000 nm polycarbonate membrane. NMR samples were prepared containing: SSA ( 200 µM), 95% HEPES buffer (HEPES (10 mM), NaCl (10 mM)) and 5% D 2O, and sodium trimethylsilylpropanesulfonate - DSS (1 µM). In order to calculate the PF and MAF the paramagnetic relaxation enhancement agent (PRE), gadodiamide (1 mM) was added to the NMR mixture. Where lipid vesicles were present in the NMR mixture, vesi cles were added at a concentration of 0.1 mg/mL.
# All 1H CPMG NMR spectra were collected with a spin -lock time of 150 mS on a Bruker Avance III spectrometer equipped with a cold probe at a proton frequency of 600 MHz and recorded at 298 K.
# Peak intensities were measured using MestReNova (Mestrelab Research). The MAF and PF were determined using previously published method. 3 For individual SSAs, MAF and PF were calculated using all aromatic CH resonances. For SSA co -formulations an average MAF and PF were calculated using all aromatic CH resonances. For individual components of the SSA co -formulations, the resonances for the different SSA anions were treated independently of one another.
# [6] = polydispersity index of DLS dH, 2.78 mM
Structure (SMILES),Peak 2 (nm) ([1]; 0.28 mM),Peak 3 (nm) ([1]; 0.28 mM),Peak 2 (nm) ([1]; 2.78 mM),dH (nm) [1],"PDI ([1]; DLS, 0.28 mM)","PDI [1, 6]",CAC [2] [mM],CAC (mM) [2],Surface tension at limit of solubility [2],Kdim [3],"dH (nm) of SSA anion, 1H NMR DOSY [4] [nm]",MAF (membrane adhesion factor) [5],PF (membrane permeation factor) [5],Peak 1 (nm) ([1]; 0.28 mM),Peak 1 (nm) ([1]; 2.78 mM)
O=C(O)CNc1c(Nc2ccc(C(F)(F)F)cc2)c(=O)c1=O [SSA 5],125.90,747.97,160.53,174 nm,0.0547,0.0614,< 2.78,>2.8 ^b mM,43 ^c mN m^−1,7636 M⁻¹,1.61,0.38,0.67,,
Cc1ccc2nc(-c3ccc(NC(=O)NCS(=O)(=O)O)cc3)sc2c1 [SSA 3],56.01,462.06,672.27,672.27 nm and 672 nm,0.0863,0.0658,,,,3 M⁻¹ and 2.7 M⁻¹,1.64,0.00,0.00,0.43,51.65
O=c1c(NCCCS(=O)(=O)O)c(Nc2ccc(C(F)(F)F)cc2)c1=O [SSA 4],,,162.46,162.46 nm and 162 nm,0.0452,0.0388,< 7.5,>7.5 ^b mM,42 ^c mN m^−1,,1.65,0.38,1.48 ^a,,
O=S(=O)(O)CCCNC(=S)Nc1ccc(C(F)(F)F)cc1 [SSA 1],100.61,747.99,184.36,184.36 nm and 184 nm,0.0602,0.0315,,,,3 M⁻¹ and 2.6 M⁻¹,1.50,0.94,1.01,0.23,
O=C(O)CNC(=S)Nc1ccc(C(F)(F)F)cc1 [SSA 2],139.08,,142.73,142 nm and 143 nm,0.0160,0.0350,,>10.0 ^b mM,41 ^c mN m^−1,105 M⁻¹,1.42,0.88,0.85,,
